pEC50: −log10 of the molar value.
Biological target: T1, Kv7.2 (Homo sapiens, UniProt O43526)
T1 construct: expressed in transfected cells
Test: Activation of Kv7.2 (in vitro assay, concentration response curve)
Format: cell-based
Conditions: for Emax: Kv7.2 activation max %; for pEC50: activation of Kv7.2
Summary of the method: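 EC50 is the half-maximal effective concentration, relative to the Emax observed for each compound in this in vitro assay. It was derived from concentration–response curves of the agonistic effect measured over a series of concentrations.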

Emax | pEC50 | Compound
68% | 6.60 | O=C(NCc1ccnc(OC(F)F)c1)N[C@@H]1CC[C@H](OC(F)(F)F)C1 [Example 288, 1-[[2-(difluoromethoxy)pyridin-4-yl]methyl]-3-[(1R,3S)-3-(trifluoromethoxy)cyclopentyl]urea]
40% | 6.01 | O=C(NCc1ccnc(OC(F)F)c1)NCC(O)C12CC(F)(C1)C2 (stereo not drawn) [Example 289, 1-[[2-(difluoromethoxy)pyridin-4-yl]methyl]-3-[2-(3-fluoro-1-bicyclo[1.1.1]pentanyl)-2-hydroxyethyl]urea]
81% | 6.05 | O=C(NCc1ccnc(OCC(F)(F)F)c1)NCC(O)C12CC(F)(C1)C2 (stereo not drawn) [Example 290, 1-[2-(3-fluoro-1-bicyclo[1.1.1]pentanyl)-2-hydroxyethyl]-3-[[2-(2,2,2-trifluoroethoxy)pyridin-4-yl]methyl]urea]
64% | 6.34 | O=C(NCc1ccnc(OC(F)F)c1)NCC(O)C12CC(C1)C2 (stereo not drawn) [Example 291, 1-[2-(1-bicyclo[1.1.1]pentanyl)-2-hydroxyethyl]-3-[[2-(difluoromethoxy)pyridin-4-yl]methyl]urea]
62% | 6.21 | O=C(NCc1ccnc(OCC(F)(F)F)c1)NCC(O)C12CC(C1)C2 (stereo not drawn) [Example 292, 1-[2-(1-bicyclo[1.1.1]pentanyl)-2-hydroxyethyl]-3-[[2-(2,2,2-trifluoroethoxy)pyridin-4-yl]methyl]urea]
93% | 6.21 | O=C(NCc1ccnc(OCC(F)(F)F)c1)N[C@H]1C[C@H](C(F)F)C1 [Example 293, 1-[(1r,3r)-3-(difluoromethyl)cyclobutyl]-3-[[2-(2,2,2-trifluoroethoxy)pyridin-4-yl]methyl]urea]
